Laboratory results as given in patent US8735423B2, “Bicyclic compounds as α4β2 nicotinic acetylcholine receptor ligands” (priority 2009, dated 2014).
Read-outs that look alike come from different tables or passages of the source.

Assays:
[1] = target: Human or Rat Nicotinic Acetylcholine α4β2 receptor (UniProt P09483+P12390); assay: Binding assay for Human or Rat Nicotinic Acetylcholine α4β2 receptor ([3H] Cytisine); conditions: [3H] Cytisine 2.5 nM; rat brain frontal cortex or recombinant human cDNA expressed in CHO cells
Protocol: Binding assay for Human or Rat Nicotinic Acetylcholine α4β2 receptor
Compounds can be evaluated according to the following procedures.
Materials and Methods: • Receptor source: Rat brain frontal cortex or recombinant human cDNA expressed in CHO cells • Radioligand: [^3H] Cytisine 15-40 Ci/mmol • Final ligand concentration—[2.5 nM] • Non-specific determinant: Epibatidine-[0.1 μM] • Reference compound: Epibatidine • Positive control: Epibatidine Incubation Conditions:
Increasing concentrations of test compounds or standard were incubated with membrane receptors and radioligand in 120 mM NaCl, 2.5 mM KCl, 1 mM CaCl2, 1 mM MgCl2 and 50 mM TRIS-HCl (pH 7.4) for 60 minutes at room temperature. The reaction was terminated by rapid vacuum filtration onto the glass fiber filters. Radioactivity trapped onto the filters was determined and compared to the control values in order to ascertain any interactions of the test compound(s) with either cloned human or rat receptor binding site.
Literature Reference: Bunnelle W. H., Daanen J. F., Ryther K. B., Schrimpf M. R., Dart M. J., Gelain A., Meyer M. D., Frost J. M., Anderson D. J., Buckley M., Curzon P., Cao Y-J., Puttfarcken P., Searle X., Ji J., Putman C. B., Surowy C., Toma L. and Barlocco D. Structure-Activity Studies and Analgesic Efficacy of N-(3-Pyridinyl)-Bridged Bicyclic Diamines, Exceptionally Potent Agonists at Nicotinic Acetylcholine Receptors. J. Med. Chem. 2007, 50, […].

Male Wister rats = assay: Object Recognition Task Model; format: in vivo; conditions: rat; for Exploration time mean ± S.E.M, Familiar object / Exploration time mean ± S.E.M, Novel object: choice trial T2
Protocol: Object Recognition Task Model
The cognition-enhancing properties of compounds of this invention were estimated using a model of animal cognition: the object recognition task model.
Male Wister rats (230-280 grams) obtained from N. I. N. (National Institute of Nutrition, Hyderabad, India) was used as experimental animals. Four animals were housed in each cage. Animals were kept on 20% food deprivation before one day and given water ad libitum throughout the experiment and maintained on a 12 hours light/dark cycle. Also the rats were habituated to individual arenas for 1 hour in the absence of any objects.
One group of 12 rats received vehicle (1 mL/Kg) orally and another set of animals received compound of the formula (I) either orally or i.p., before one hour of the familiar (T1) and choice trial (T2).
The experiment was carried out in a 50×50×50 cm open field made up of acrylic. In the familiarization phase, (T1), the rats were placed individually in the open field for 3 minutes, in which two identical objects (plastic bottles, 12.5 cm height×5.5 cm diameter) covered in yellow masking tape alone (a1 and a2) were positioned in two adjacent corners, 10 cm. from the walls. After 24 hours of the (T1) trial for long-term memory test, the same rats were placed in the same arena as they were placed in T1 trial. Choice phase (T2) rats were allowed to explore the open field for 3 minutes in presence of one familiar object (a3) and one novel object (b) (Amber color glass bottle, 12 cm high and 5 cm in diameter). Familiar objects presented similar textures, colors and sizes. During the T1 and T2 trial, explorations of each object (defined as sniffing, licking, chewing or having moving vibrissae whilst directing the nose towards the object at a distance of less than 1 cm) were recorded separately by stopwatch. Sitting on an object was not regarded as exploratory activity, however, it was rarely observed.
T1 is the total time spent exploring the familiar objects (a1+a2).
T2 is the total time spent exploring the familiar object and novel object (a3+b).
The object recognition test was performed as described by Ennaceur, A., Delacour, J., 1988, A new one-trial test for neurobiological studies of memory in rats—Behavioural data, Behay. Brain Res., 31, 47-59.
Some representative compounds have shown positive effects indicating the increased novel object recognition viz; increased exploration time with novel object and higher discrimination index.

[2] = Rodent Brain Penetration Study; conditions: in vivo, Wistar rat male, P.O, read-out: Steady State Brain Penetration (Cb/Cp)
Protocol: Rodent Brain Penetration Study
Male Wistar rats (230-280 grams) obtained from NIN (National Institute of Nutrition, Hyderabad, India) was used as an experimental animal. Three animals were housed in each cage. Animals were given water and food ad libitum throughout the experiment, and maintained on a 12 hours light/dark cycle.
NCE compound was dissolved in water and administered orally. At Tmax (0.5, 1.0 and 2.0) animals were sacrificed to collect the plasma and brain tissue and was homogenized. Plasma and Brain was stored frozen at −20° C. until analysis. The concentrations of the NCE compound in plasma and Brain were determined using LC-MS/MS method.
The NCE compounds were quantified in plasma and brain homogenate by validated LC-MS/MS method using solid phase extraction technique. NCE compounds were quantified in the calibration range of 1-500 ng/mL in plasma and brain homogenate. Study samples were analyzed using calibration samples in the batch and quality control samples spread across the batch. Extents of brain-blood ratio were calculated (Cb/Cp).

[3] = target: T1, recombinant human α4β2 nicotinic acetylcholine receptor (Homo sapiens, UniProt P17787+P43681); assay: Determination of IC50 and Kb values, aequorin luminescence assay in CHO cells; format: cell-based; conditions: antagonist mode, fixed concentration of agonist epibatidine, CHO cells, luminescence; read-out: Kb
T1 construct: expressed in transfected cells
Protocol: Determination of IC50 and Kb Values for Nicotinic Acetylcholine α4β2 Receptor Ligands
A stable CHO cell line expressing recombinant human α4β2 nicotinic acetylcholine receptor transiently expressing aequorin protein was used for cell-based assay. The assay offers a non-radioactive based approach to determine binding of a compound to ligand gated ion channels. In this specific assay, the level of intracellular calcium which is modulated by activation or inhibition of the channel is measured. Both the channel and aequorin genes are expressed at high level under the control of powerful CMV promotor.
The above cells were grown in 96 well clear bottom white plates in Hams F12 medium containing 10% fetal bovine serum (FBS). Prior to the addition of compounds and/or agonist, cells were serum starved for six hours. Coelentarazine (a prosthetic group for aequorin protein) was added in the medium containing 0.1% dialyzed serum and incubated overnight at 27° C. Cells were washed with assay buffer and increasing concentration of the test compound or standard were added to the plate for antagonist mode. A fixed concentration of the agonist (eipbatidine) was injected into the plate and luminescence was measured for 10 seconds. For evaluation of the compound in agonist mode, increasing concentration of the standard or test compound was injected and the luminescence was measured. Luminescence units were plotted against the compound concentrations using Graphpad software. IC50 values of the compounds were defined as the concentration required in reducing the luminescent units by 50%. The Kb values were calculated by feeding the concentration of the agonist used in the assay and its EC50 value in the same software.
Literature References: Karadsheh M. S., Shah M. S., Tang X., Macdonald R. L. and Stitzel J. A. Functional characterization of mouse α4β2 nicotinic acetylcholine receptors stably expressed in HEK293T cells. J. Neurochem. 2004, 91, 1138-1150.

T1 sequence (P43681 29-627): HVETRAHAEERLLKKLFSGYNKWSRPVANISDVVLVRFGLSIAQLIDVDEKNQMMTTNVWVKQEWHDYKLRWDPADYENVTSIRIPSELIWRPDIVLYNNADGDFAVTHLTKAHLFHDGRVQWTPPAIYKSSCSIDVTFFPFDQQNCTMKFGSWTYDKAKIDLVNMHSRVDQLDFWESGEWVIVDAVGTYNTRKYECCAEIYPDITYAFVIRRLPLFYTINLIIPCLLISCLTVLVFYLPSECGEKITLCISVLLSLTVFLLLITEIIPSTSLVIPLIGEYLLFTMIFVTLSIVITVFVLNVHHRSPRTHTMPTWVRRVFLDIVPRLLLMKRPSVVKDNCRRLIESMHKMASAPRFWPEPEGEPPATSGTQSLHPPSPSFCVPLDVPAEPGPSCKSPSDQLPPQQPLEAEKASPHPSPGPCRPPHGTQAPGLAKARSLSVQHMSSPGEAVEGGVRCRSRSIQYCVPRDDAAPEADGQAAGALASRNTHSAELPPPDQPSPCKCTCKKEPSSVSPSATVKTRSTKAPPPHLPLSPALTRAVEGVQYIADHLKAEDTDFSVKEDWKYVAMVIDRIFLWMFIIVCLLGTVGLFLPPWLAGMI
T1 sequence (P17787 26-502): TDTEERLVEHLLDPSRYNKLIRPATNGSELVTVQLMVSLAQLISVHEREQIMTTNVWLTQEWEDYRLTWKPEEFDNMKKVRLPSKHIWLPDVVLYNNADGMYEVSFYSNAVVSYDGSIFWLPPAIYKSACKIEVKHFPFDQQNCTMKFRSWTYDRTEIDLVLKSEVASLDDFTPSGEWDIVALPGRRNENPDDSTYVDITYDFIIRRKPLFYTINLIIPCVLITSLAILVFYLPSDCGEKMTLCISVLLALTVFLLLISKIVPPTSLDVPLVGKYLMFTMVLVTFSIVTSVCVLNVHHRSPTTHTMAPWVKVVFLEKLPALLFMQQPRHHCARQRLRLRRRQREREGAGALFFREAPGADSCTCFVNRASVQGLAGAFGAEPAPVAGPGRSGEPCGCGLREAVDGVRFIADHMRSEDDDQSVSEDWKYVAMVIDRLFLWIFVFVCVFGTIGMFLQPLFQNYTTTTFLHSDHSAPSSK

Cl.Cl.Clc1cncc(OCC2CC3CC3N2)c1 (stereo not drawn) [Example 7, 3-(5-Chloropyridin-3-yloxymethyl)-2-azabicyclo[3.1.0]hexane dihydrochloride]
Ki [1]: 0.19 nM
Inference (Male Wister rats; 1 mg/kg p.o.): Active
Exploration time mean ± S.E.M, Familiar object (Male Wister rats; 1 mg/kg p.o.): 6.81 ± 1.49 s
Exploration time mean ± S.E.M, Novel object (Male Wister rats; 1 mg/kg p.o.): 16.70 ± 3.19 s
Kp ([2]; 5 mg/kg): 3.79 ± 0.66
Kb [3]: 17.8 nM

Cl.c1cncc(OCC2CC3CC3N2)c1 (stereo not drawn) [Example 1, 3-(Pyridin-3-yloxymethyl)-2-azabicyclo[3.1.0]hexane hydrochloride]
Ki [1]: 7.7 nM
Inference (Male Wister rats; 0.1 mg/kg p.o.): Active
Exploration time mean ± S.E.M, Familiar object (Male Wister rats; 0.1 mg/kg p.o.): 7.75 ± 0.84 s
Exploration time mean ± S.E.M, Novel object (Male Wister rats; 0.1 mg/kg p.o.): 12.65 ± 1.96 s
Kp ([2]; 15 mg/kg): 3.8 ± 0.289
Kb [3]: 7.1 nM
